Source: patent publication US20150297482A1, “MALODOR COUNTERACTING COMPOSITIONS AND METHOD FOR THEIR USE TO COUNTERACT SWEAT MALODOR” (FIRMENICH SA, priority 2009, published 2015)

Test system: Staphylococcus haemolyticus CNCM I-4170
Test: Protocol A: in-vitro malodor inhibition (free thiol groups from Cys-Gly precursor, DTNB absorbance at 412 nm)
Format: cell-based
Excerpt: Further details of such a screening and % inhibition measurement and definition are described further on in this application. The precursor used, which may also be in the form of a human sweat sample, typically generates malodorant sulfur compounds when acted upon by the Staphylococcus haemolyticus cells, or by a β-lyase present in such cells. The malodor inhibition coefficient, as defined herein, reflects the % of reduction in free SH groups generated in the above-mentioned medium by the enzymatic activity of the bacterial cells when in presence of the MOC ingredient or MOC composition in question, as compared to the same measurement in their absence. […] Alternatively, the bacterial cells can be replaced by a β-lyase present in said cells. […] Detection of enzymatic activity inhibition is measured via the sulfur groups, namely thiol groups, freed from the precursor bacterial transformation, by comparison with the reference experiment in the absence of the respective MOC ingredient, said sulfur groups being detected by interaction with DTNB, a known chemical detector system for thiols. The reaction can be monitored by absorbance reading at 412 nm. The procedure can be performed indifferently with either a purified or semi-purified enzyme or intact bacterial cells, as in the case described here. Malodor inhibition coefficient is measured as a function of the percentage of free thiol groups in the medium, over time, by an absorbance method, and reflects the reduction in malodor obtained in the presence of the MOC ingredients and compositions. […] At the end of the growth phase, the bacterial cells were harvested by centrifugation at 5000 rpm for 15 min. The cell pellet was then washed with 0.1 volumes of sterile potassium phosphate buffer 0.1 M, pH 7.5. […] The precursor was used at 0.17 mM final concentration. • Detection reagent DTNB • DTNB (5,5′-Dithio-bis-(2-nitrobenzoic acid; […]

Structure (SMILES)	Ingredient Malodor Inhibition Value (%) (0.0012 w/v % in medium)	Ingredient Malodor Inhibition Value (%) (0.0025 w/v % in medium)	Ingredient Malodor Inhibition Value (%) (0.006 w/v % in medium)	Ingredient Malodor Inhibition Value (%) (0.0125 w/v % in medium)	Ingredient Malodor Inhibition Value (%) (0.025 w/v % in medium)	Ingredient Malodor Inhibition Value (%) (0.05 w/v % in medium)	inhibition at 0.0012 % (Staphylococcus haemolyticus, CNCMI4170, Table 2, 0.0012 w/v % in medium, read-out: Ingredient Malodor Inhibition Value (%))	inhibition at 0.0025 % (Staphylococcus haemolyticus, CNCMI4170, Table 2, 0.0025 w/v % in medium, read-out: Ingredient Malodor Inhibition Value (%))	inhibition at 0.005 % (Staphylococcus haemolyticus, CNCMI4170, Table 2, 0.005 w/v % in medium, read-out: Ingredient Malodor Inhibition Value (%))	inhibition at 0.0125 % (Staphylococcus haemolyticus, CNCMI4170, Table 2, 0.0125 w/v % in medium, read-out: Ingredient Malodor Inhibition Value (%))
C[C@H]1[C@@H]2CC(C[C@@]13C=CC(=O)CC3)C2(C)C (single isomer, unassigned; (+))	0.00%	14.02%	26.00%	72.64%	75.94%	75.68%	–	–	–	–
CC(C)CCCC(C)CC=O (stereo not shown) [3,7-Dimethyloctanal]	–	–	–	–	–	–	0%	0%	18.1%	66.7%
